Source: US9522377B2, “Method for improving the properties of amphiphile particles” (CAMURUS AB, priority 2003, dated 2016)

Legend:
[1] = for influence of drug on properties of the dispersions: 0.3% drug, GMOrphic/12% P407, non-autoclaved and autoclaved; for effect on lattice constant of cubic phase, autoclaved dispersions / effect on particle size of autoclaved dispersions: autoclaved 121° C., 15+5 min; for influence on non-autoclaved dispersions: chloramphenicol 0.3, 1 and 2%, miconazole 0.3 and 1%
Procedure: All drug concentrations are indicated relative to the sum of monoglyceride and poloxamer. A drug-free dispersion was prepared and investigated as a reference.
All dispersions were autoclaved at 121° C. for 15+5 min. (allowing for temperature equilibration in the autoclave) and their properties were compared to that of the corresponding non-autoclaved dispersions.

[2] = Active agent loading of cubic particles; type: physicochemical
Procedure: To the dispersions is added the cationic peptide desmopressin to a concentration of 1 mg/ml. The dispersion is allowed to equilibrate for 60 minutes at room temperature and reanalyzed for particle size and optionally phase behaviour. The particle size is not affected as determined using laser diffraction.
A dispersion of cubic particles of formulation GMO/OA/F-127 (84.5:4.5:10) was prepared as in Example 24. The steroid hormone progesterone was incubated with the cubic particles at room temperature as described for desmopressin in Example 22. The equilibrium loading level was 3% by weight.
The above method was repeated by the active agent progesterone was included in the aqueous phase prior to the homogenisation and heat treatment steps. The loading level was again examined and established to be 18 wt %. The effect upon the particle size distribution was minimal.

Row | SMILES | effect on lattice constant of cubic phase, autoclaved dispersions [1] | influence of drug on properties of the dispersions [1] | effect on particle size of autoclaved dispersions [1] | influence on non-autoclaved dispersions [1] | also measured
1 | COC1=C(OC)C(=O)C(C/C=C(\C)CC/C=C(\C)CC/C=C(\C)CC/C=C(\C)CC/C=C(\C)CC/C=C(\C)CC/C=C(\C)CC/C=C(\C)CC/C=C(\C)CCC=C(C)C)=C(C)C1=O [Ubidecarenone, ubidecarenone] |  | did not influence the properties of the resulting dispersions |  |  | 
2 | CCCCC(=O)O[C@]1(C(=O)CO)[C@@H](C)C[C@H]2[C@@H]3CCC4=CC(=O)C=C[C@]4(C)[C@@]3(F)[C@@H](O)C[C@@]21C [betamethasone-17-valerate] |  |  |  |  | influence of drug on general behaviour of the dispersions ([1]; 0.3, 1 or 2% drug): no influence on the general behaviour of the dispersions
3 | CC(=O)[C@H]1CC[C@H]2[C@@H]3CCC4=CC(=O)CC[C@]4(C)[C@H]3CC[C@]12C [progesterone] |  |  |  |  | loading level ([2]; included in aqueous phase prior to homogenisation and heat treatment, GMO/OA/F-127 (84.5:4.5:10)): 18 wt %; equilibrium loading level ([2]; incubated with GMO/OA/F-127 (84.5:4.5:10) cubic particles at room temperature): 3 % by weight
4 | CC(=O)Oc1c(C)c(C)c2c(c1C)CCC(C)(CCC[C@H](C)CCC[C@H](C)CCCC(C)C)O2 (some centres unmarked) [tocopherol acetate] |  | did not influence the properties of the resulting dispersions |  |  | 

Continued, in another order:

Row | effect on lattice constant of cubic phase, autoclaved dispersions [1] | SMILES | influence of drug on properties of the dispersions [1] | effect on particle size of autoclaved dispersions [1] | influence on non-autoclaved dispersions [1] | also measured
5 | slight increase in lattice constant | O=C(N[C@H](CO)[C@H](O)c1ccc([N+](=O)[O-])cc1)C(Cl)Cl [chloramphenicol] |  | particle sizes increased distinctly with drug concentration | no influence on the non-autoclaved dispersions | 
6 | decreased slightly | Clc1ccc(COC(Cn2ccnc2)c2ccc(Cl)cc2Cl)c(Cl)c1 (centres unmarked) [miconazole] |  | slightly larger (0.3%) and distinctly larger (1%) particle sizes | no influence on the non-autoclaved dispersions | 
